Reference: US5318971A, “3-Substituted-1-aryl-2(1H)-quinolones useful as anti-allergy and anti-inflammatory agents” (Schering Corporation, priority 1991, dated 1994)
Like-named read-outs stand apart in the source and are kept apart here.

How the values were obtained:
[1] = test system: SRS-A (leukotriene) release, guinea pig lung; test: SRSA Release in vitro (leukotriene release from sensitized guinea pig lung fragments); type: cell-based; details: Cavia porcellus, ovalbumin challenge, read-out: SRSA Release in vitro % l
Experimental: First, kill sensitized guinea pigs by a blow to the head, remove the lungs and clean them of visible connective tissue, trachea and large blood vessels. Slice the lungs from individual animals into fragments approximately 1 mm in thickness using a Mcllwain tissue chopper and wash them with oxygenated Tyrode's buffer. Transfer weighted allquots (approximately 400 mg wet weight) of lung into vials containing 2 ml of fresh Tyrode's solution (containing 10 mM cysteine) and incubate in the presence or absence of test compound for 12 minutes at 37° C., challenge the tissues with 20 μg ovalbumin/ml (final concentration) and incubate for 15 minutes.
To measure leukotriene release, extract an aliquot of supernatant fluid with 4 volumes of 100% ethanol. After removal of the precipitated protein, dry the clear fluid under a stream of N2 gas. Measure the leukotriene content by a radioimmunoassay using [^3 H]LTC4 (leukotriene C4) and antiserum obtained from New England Nuclear. Calculate percent inhibition of leukotriene release by comparing for each lung the release in the presence of the test compound to that in the absence of test compound.

[2] = test system: rat pleural cavity; test: Reverse Passive Arthus Pleurisy Reaction (RPAPR), pleural exudate cells and fluid; type: in vivo; details: po; for inhibition in vivo at 5 mg/kg: 5 mg/kg p.o.; for inhibition in vivo at 10 mg/kg: 10 mg/kg p.o.; for inhibition in vivo at 25 mg/kg: 25 mg/kg p.o.
Experimental: (§1) RPAPR was produced by a modification of the Yamamoto et al. method (Agents and Actions 5: 374-377, 1975). Thirty (30) minutes prior to lightly anesthesizing rats with ether and then sensitizing them by injecting the animals i.v. with 0.33 mg of bovine serum albumin (BSA) dissolved in 0.2 ml sterile saline, a test compound was administered per os (p.o.) as indicated in Table 1. Thirty minutes later, the rats were again lightly anesthetized and challenged intrapleurally with a rabbit anti-BSA antibody (Organon), containing 1.2 mg antibody protein, dissolved in 0.2 ml sterile saline. Four hours after challenge the rats were sacrificed by CO2 inhalation, their pleural cavities exposed and the exudate harvested. The total volumes of each exudate was recorded and the total number of leukocytes determined using a Coulter Counter ZM.

[3] = test system: TXB2 (Thromboxane B2); test: Reverse Passive Arthus Pleurisy Reaction (RPAPR), TxB2 in pleural exudate; type: in vivo; details: rat, 25 mg/kg p.o.; radioimmunoassay of exudate
Experimental: as §1
(§2) The exudate were then centrifuged and the supernatants decanted. Four volumes of cold 95% acetone was added for each volume of exudate. One half hour later the samples were again centrifuged for 10 minutes. Immediately after, 5 ml of the supernatant was removed and dried under nitrogen. These samples were kept in a freezer until LTE4 and TxB2 were determined using a radioimmune assay kit from Amersham.
TXB2 = Thromboxane B2 a measure of cyclooxygenase (CO) derived
(§3) mediators of inflammation.

[4] = test system: LTE4 (Leukotriene E4); test: Reverse Passive Arthus Pleurisy Reaction (RPAPR), LTE4 in pleural exudate; type: in vivo; details: rat, 25 mg/kg p.o.; radioimmunoassay of exudate
Experimental: as §1, §2
LTE4 = Leukotriene E4 a measure of lipoxygenase (LO) derived
as §3

[5] = test system: antigen-induced SRS-A mediated bronchoconstriction; test: Guinea Pig Bronchospasm (anaphylactic bronchospasm in sensitized guinea pigs); type: in vivo; details: 5 mg/kg p.o., ovalbumin aerosol challenge
Experimental: The anti-allergy activity of the compounds of this invention is identified by tests which measure a compound's inhibition of anaphylactic bronchospasms in sensitized guinea pigs having antigen-induced SRS-A mediated bronchoconstriction. Allergic bronchospasms were measured in actively sensitized guinea pigs by a modification of the procedure of Konzett and Rossler, Arch. Expt. Pathol. Pharmakol., 194, pp. 71-74 (1940). Male Hartly guinea pigs were sensitized with 5 mg ovalbumin injected ip and 5 mg injected sc in 1 ml saline on day 1 and 5 mg ovalbumin injected ip on day 4. To measure anaphylactic bronchospasm, sensitized guinea pigs were fasted overnight and the following morning were anesthetized with 0.9 mL/kg ip dialurethane. The trachea and jugular vein were cannulated and the animals were ventilated by a Harvard rodent respirator. A side arm to the tracheal cannula was connected to a Harvard pressure transducer to obtain a continuous measure of intratracheal pressure. An increase in intratracheal pressure was taken as a measure of bronchoconstriction. Each guinea pig was injected i.v. with 1 mg/kg propranolol, 5 mg/kg indomethacin and 2 mg/kg mepyramine given together in a volume of 1 mL/kg. […] Bronchoconstriction was measured as the peak increase in intratracheal pressure occurring within 15 minutes after antigen challenge.

[6] = Leukocyte, leukocytes in exudate 4 h after challenge, read-out: % Inhibition Cells
[7] = exudate volume 4 h after challenge, read-out: % Inhibition Fluid

`O=c1c(Cn2cncn2)cc2ccccc2n1-c1ccccc1` [Formula 2] was tested, and the inhibition at 30 µM [1] was 83%, the inhibition in vivo at 5 mg/kg [2, 6] was 64% and the inhibition in vivo at 5 mg/kg [2, 7] was 42%.
`O=c1c(Cn2cnnn2)cc2ccccc2n1-c1ccccc1` [Formula 3] was tested, and the inhibition at 30 µM [1] was 83%, the inhibition in vivo at 10 mg/kg [2, 6] was 75% and the inhibition in vivo at 10 mg/kg [2, 7] was 50%.
`Cn1ccnc1SCc1cc2ccccc2n(-c2ccccc2)c1=O` [Formula 48, 1-Phenyl-3-(1-Methyl-1H-imidazol-2-ylthiomethyl)-2(1H)-quinolone] was tested, and the “% Inhibition TXB2” value [3] was 67%, the inhibition in vivo at 25 mg/kg [2, 6] was 75% and the inhibition in vivo at 25 mg/kg [2, 7] was 40%. For the same compound, the “% Inhibition LTE4” value [4] was 57%.
Compound `O=c1c(CCn2ccnc2)cc2ccccc2n1-c1ccccc1` [Formula 49] has an inhibition in vivo at 25 mg/kg [2, 6] of 86% and an inhibition in vivo at 25 mg/kg [2, 7] of 53%.
In the case of `CCc1nccn1Cc1cc2ccccc2n(-c2ccccc2)c1=O` [Formula 50], the inhibition in vivo at 25 mg/kg [2, 6] was under 10% and the inhibition in vivo at 25 mg/kg [2, 7] was under 10%.
`C[S+]([O-])Cc1cc2ccccc2n(Cc2ccccc2)c1=O` (stereo not shown) [Formula 51] was tested, and the inhibition in vivo at 25 mg/kg [2, 6] was 22% and the inhibition in vivo at 25 mg/kg [2, 7] was under 10%.
`O=c1c(Cn2cncn2)cc2ccccc2n1Cc1ccccc1` [Formula 52] gave an inhibition in vivo at 25 mg/kg [2, 6] of 44% and an inhibition in vivo at 25 mg/kg [2, 7] of 46%.
`O=c1c(Cn2cncn2)cc2ccccc2n1-c1ccc(Cl)cc1` [Formula 53] gave an inhibition at 30 µM [1] of 76%, an inhibition in vivo at 25 mg/kg [2, 6] of under 10% and an inhibition in vivo at 25 mg/kg [2, 7] of 18%. For the same compound, the “G.P. Bronchospasm % l” value [5] was 18%.
`O=c1c(Cn2cncn2)cc2cc(Br)ccc2n1-c1ccccc1` [Formula 54, 6-bromo-1-phenyl-3-(1H-1,2,4-triazol-1-ylmethyl)-2(1H)-quinolone] gave an inhibition in vivo at 25 mg/kg [2, 6] of under 10% and an inhibition in vivo at 25 mg/kg [2, 7] of under 10%.
In the case of `O=c1c(Cn2cncn2)cc2ccc(Cl)cc2n1-c1ccccc1` [Formula 55, 1-phenyl-7-chloro-3-(1H-1,2,4-triazol-1-ylmethyl)-2(1H)-quinolone], the inhibition in vivo at 25 mg/kg [2, 6] was under 10% and the inhibition in vivo at 25 mg/kg [2, 7] was under 10%.
`O=c1c(Cn2cncn2)cc2ccccc2n1-c1cccc(Cl)c1` [Formula 56, (1-3-Chlorophenyl)-3-(1H-1,2,4-Triazol-1-ylmethyl)-2(1H)-Quinolone] gave an inhibition in vivo at 5 mg/kg [2, 6] of 56% and an inhibition in vivo at 5 mg/kg [2, 7] of 63%.
In the case of `O=c1c(Cn2cccn2)cc2ccccc2n1-c1ccccc1` [Formula 57], the inhibition in vivo at 25 mg/kg [2, 6] was 20% and the inhibition in vivo at 25 mg/kg [2, 7] was 19%.
Work on `CC(=O)NCc1cc2ccccc2n(-c2ccccc2)c1=O` [Formula 58] yielded an inhibition in vivo at 25 mg/kg [2, 6] of 62% and an inhibition in vivo at 25 mg/kg [2, 7] of 53%.
`CC(=O)N1CCN(Cc2cc3ccccc3n(-c3ccccc3)c2=O)CC1` [Formula 59] was tested, and the inhibition in vivo at 25 mg/kg [2, 6] was 68% and the inhibition in vivo at 25 mg/kg [2, 7] was 68%.
